Data: publication PMC4942689, “Deciphering the function of the CNGB1b subunit in olfactory CNG channels” (Scientific Reports, 2016)

Columns and labels:
CNGA2TM:A4 channels = test system: CNGA2TM:A4 channels; parameters: method as in PMID 22786723; conditions: cited from earlier work
CNGB1b = test system: CNGB1b; parameters: method as in Nache et al., 2012; key: +: ligand binding to the respective modulatory subunits was either observed or not; −: ligand binding to the respective modulatory subunits was either observed or not; conditions: 10 μM; construct CNGB1b; ref Nache et al., 2012; cited from earlier work
CNGA2TM:A4RE = test system: CNGA2TM:A4RE; parameters: method as in Nache et al., 2012; key: +: ligand binding to the respective modulatory subunits was either observed or not; −: ligand binding to the respective modulatory subunits was either observed or not; conditions: 10 μM; construct CNGA2TM:A4RE; ref Nache et al., 2012; cited from earlier work
CNGA2:A4:B1b channels [1] = target: T1, CNGA2:A4:B1b channels (Rattus norvegicus, UniProt A0A8I5ZN27+Q00195+Q64359); test: Concentration-activation relationship, inside-out patch-clamp; type: biochemical; conditions: CNGA2:A4:B1b
T1 construct: expressed in transfected cells; host or cells: Xenopus laevis oocytes (cRNA injection 2:1:1), excised inside-out patches
T1 sequence (Q00195 whole entry): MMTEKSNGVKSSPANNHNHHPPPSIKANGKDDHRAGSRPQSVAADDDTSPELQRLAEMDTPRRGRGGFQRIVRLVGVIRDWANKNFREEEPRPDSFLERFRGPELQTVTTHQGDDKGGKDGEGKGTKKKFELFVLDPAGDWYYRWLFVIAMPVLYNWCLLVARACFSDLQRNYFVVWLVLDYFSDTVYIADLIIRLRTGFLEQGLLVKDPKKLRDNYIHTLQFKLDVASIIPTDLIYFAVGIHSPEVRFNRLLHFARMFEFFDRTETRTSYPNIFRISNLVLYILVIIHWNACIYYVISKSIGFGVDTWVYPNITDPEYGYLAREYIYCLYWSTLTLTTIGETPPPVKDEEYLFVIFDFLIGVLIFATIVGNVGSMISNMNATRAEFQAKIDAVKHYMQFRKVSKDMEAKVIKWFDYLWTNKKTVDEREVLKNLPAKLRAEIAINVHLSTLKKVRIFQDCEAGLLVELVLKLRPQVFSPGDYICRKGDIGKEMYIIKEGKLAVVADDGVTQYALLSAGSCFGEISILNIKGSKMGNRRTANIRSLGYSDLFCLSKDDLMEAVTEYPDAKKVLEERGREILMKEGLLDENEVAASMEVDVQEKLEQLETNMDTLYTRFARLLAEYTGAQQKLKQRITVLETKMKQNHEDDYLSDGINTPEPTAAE
T1 sequence (Q64359 whole entry): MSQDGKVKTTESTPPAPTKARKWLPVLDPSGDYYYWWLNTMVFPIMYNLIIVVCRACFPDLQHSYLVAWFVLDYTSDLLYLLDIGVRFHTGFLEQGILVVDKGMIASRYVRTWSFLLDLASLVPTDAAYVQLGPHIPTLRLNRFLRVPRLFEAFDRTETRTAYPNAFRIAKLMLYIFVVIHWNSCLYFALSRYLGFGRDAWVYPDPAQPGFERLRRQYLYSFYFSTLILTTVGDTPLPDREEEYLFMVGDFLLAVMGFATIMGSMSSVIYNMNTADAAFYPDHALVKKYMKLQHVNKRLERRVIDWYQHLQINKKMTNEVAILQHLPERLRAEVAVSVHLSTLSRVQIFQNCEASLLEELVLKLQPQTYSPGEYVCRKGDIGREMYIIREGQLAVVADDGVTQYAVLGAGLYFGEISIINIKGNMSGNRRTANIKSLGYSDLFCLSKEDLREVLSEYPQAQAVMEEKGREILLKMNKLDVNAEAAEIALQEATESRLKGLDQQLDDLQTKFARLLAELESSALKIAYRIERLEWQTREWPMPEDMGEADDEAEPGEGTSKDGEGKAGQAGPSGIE
T1 sequence (A0A8I5ZN27 1-858 isoform A0A8I5ZN27-2): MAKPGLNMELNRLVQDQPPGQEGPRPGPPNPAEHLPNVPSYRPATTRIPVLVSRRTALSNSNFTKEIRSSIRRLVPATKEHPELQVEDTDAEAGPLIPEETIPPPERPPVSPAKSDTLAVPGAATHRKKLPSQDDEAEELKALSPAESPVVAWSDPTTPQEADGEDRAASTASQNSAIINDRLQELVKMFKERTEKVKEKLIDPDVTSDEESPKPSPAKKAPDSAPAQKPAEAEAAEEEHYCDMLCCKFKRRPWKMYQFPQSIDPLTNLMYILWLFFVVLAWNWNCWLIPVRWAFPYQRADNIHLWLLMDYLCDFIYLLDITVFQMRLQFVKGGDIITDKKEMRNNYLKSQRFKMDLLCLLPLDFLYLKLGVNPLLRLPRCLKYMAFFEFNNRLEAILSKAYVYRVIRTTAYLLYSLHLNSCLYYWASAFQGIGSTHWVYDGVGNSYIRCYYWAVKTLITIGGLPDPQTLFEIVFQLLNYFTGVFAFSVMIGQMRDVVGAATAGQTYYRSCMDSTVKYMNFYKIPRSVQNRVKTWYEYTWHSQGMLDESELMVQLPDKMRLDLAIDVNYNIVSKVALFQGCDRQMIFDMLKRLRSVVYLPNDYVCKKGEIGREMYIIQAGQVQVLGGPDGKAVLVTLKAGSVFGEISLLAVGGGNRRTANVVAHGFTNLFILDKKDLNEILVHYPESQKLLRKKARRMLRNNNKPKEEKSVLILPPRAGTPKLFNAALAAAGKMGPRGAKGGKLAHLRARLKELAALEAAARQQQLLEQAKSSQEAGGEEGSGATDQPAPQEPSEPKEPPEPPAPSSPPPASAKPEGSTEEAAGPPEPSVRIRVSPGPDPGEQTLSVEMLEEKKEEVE
Procedure: Patch-clamp experiments were performed using an Axopatch 200B amplifier (Molecular Devices LLC, CA, U.S.A.) in the inside-out configuration. The patch pipettes for recording of macroscopic currents were pulled from borosilicate glass tubing (outer diameter 2.0 mm, inner diameter 1.0 mm; Hilgenberg GmbH, Germany). The initial resistance was 0.7–1.3 MΩ. The patches were formed as pushed inside-out patches. […] Cyclic nucleotide concentration jumps were performed using a double-barreled glass pipette mounted on a piezo-driven device. Intracellular (bath) and extracellular (pipette) solutions contained (mM) 150 KCl, 1 EGTA, 5 Hepes, pH = 7.4 with KOH. […] Currents in the absence of the cyclic nucleotide were subtracted. All patches included in this study were first tested for channel expression in the presence of a saturating ligand concentration. Only patches with large current, i.e. a large number of channels, were included in our statistics. The currents were measured at +10 mV or, if mentioned, at +100 mV.
Fits of equations to data points were performed with the 8.1G® software (OriginLab Corporation, Northampton, U.S.A.). Concentration-activation relationships were obtained by relating the actual current amplitude, I, to the maximum current amplitude elicited by a saturating concentration of ligand, Imax, and plotting this ratio as function of the ligand concentration, x. The concentration-activation data were fitted using the Hill equation
where EC50 is the ligand concentration of half maximum effect and H the Hill coefficient.
In fHcAMP the dye DY547 is coupled to
(b) Concentration-activation relationships of the CNGA2:A4:B1b channels activated by either
The currents were recorded […]

CNGA2:A4:B1b channels [2] = target: T1, CNGA2:A4:B1b channels; test: Activation and deactivation time courses after fast concentration jumps; type: biochemical; conditions: +10 mV, monoexponential fit
Procedure: To characterize the contribution of each subunit to the kinetics of channel gating, we also studied activation and deactivation time courses for CNGA2:A4:B1b, CNGA2, CNGA2RE:A4RE:B1b and CNGA2RE:A4:B1b RE channels. Fast concentration jumps from zero to 10 μM cGMP and back to zero were applied with the help of a piezo-driven switch pipette. Activation (Fig. 4a) and deactivation (Fig. 4b) time courses were fitted with a single exponential or the sum of two exponential functions in case of the CNGA2RE:A4RE:B1b channel. The obtained time constants are shown in bar graphs below the traces. In case of the biexponential time courses a mean time constant was obtained according to equation (S1) (Supplementary Information). CNGA2RE:A4RE:B1b channel activation triggered by CNGB1b only is the slowest, followed by that of CNGA4 only in CNGA2RE:A4:B1bRE channels and homotetrameric CNGA2 channels.
Figure 4 Effects of the CNGB1b and CNGA4 subunit on the kinetics of channel activation and deactivation. […]
Patch-clamp experiments were performed using an Axopatch 200B amplifier (Molecular Devices LLC, CA, U.S.A.) in the inside-out configuration. […] The currents were measured at +10 mV or, if mentioned, at +100 mV.

Row | Compound | degree of activation induced by binding to CNGA4 (CNGA2TM:A4 channels; CNGA2TM:A4 channels) | EC50 (CNGA2TM:A4 channels; in the presence of CNGA2TM only, read-out: EC50,h value for CNGA4) | Ligand binding to CNGB1b (CNGB1b) | Ligand binding to CNGA4 (CNGA2TM:A4RE) | EC50 (CNGA2:A4:B1b channels [1]; Equation 1) | H (CNGA2:A4:B1b channels [1]; Hill coefficient) | deactivation time constant (CNGA2:A4:B1b channels [2]; concentration jump from 10 μM back to zero) | activation time constant (CNGA2:A4:B1b channels [2]; concentration jump from zero to 10 μM)
1 | 8-[DY-547]-AET-cGMP [fcGMP] | ~ 12% | 6.8 µM | − | − |  |  |  | 
2 | Nc1nc2c(ncn2[C@@H]2O[C@@H]3COP(=O)(O)O[C@H]3[C@H]2O)c(=O)[nH]1 [cGMP] |  |  |  |  | 0.76 µM | 2.0 | ~ 120 ms | ~ 17 ms
